Measured values as given in patent US20260116902A1, “NOVEL COMPOUND AS FUNCTIONAL ANTAGONIST FOR S1PR1 AND S1PR4” (NEXTGEN BIOSCIENCE CO., LTD., priority 2024, published 2026).

Target: T1, S1PR1 (Homo sapiens, UniProt P21453)
T1 construct: host or cells: CHO-K1 (PathHunter eXpress β-Arrestin GPCR cells)
Experiment: β-arrestin recruitment assay (PathHunter CHO-K1), S1PR1
Type: cell-based
Conditions: agonism
Protocol: To this end, each of the cell lines in which S1PR1, S1PR2, S1PR3, and S1PR4 are overexpressed (PathHunter® CHO-K1 eXpress β-Arrestin GPCR cells; DiscoverX, Fremont, USA) was seeded in a 384-well plate at 5000 cells/well and cultured using an AssayComplete™ Cell Culture Kit-107 (DiscoverX, Fremont, USA). […] A PathHunter detection reagent cocktail (DiscoverX, Fremont, USA) was added in accordance with the manufacturer's instructions and incubated for 1 hour, followed by measuring a chemiluminescent signal (luminescence reader, 0.1 to 1 second/well).

T1 sequence (P21453 whole entry): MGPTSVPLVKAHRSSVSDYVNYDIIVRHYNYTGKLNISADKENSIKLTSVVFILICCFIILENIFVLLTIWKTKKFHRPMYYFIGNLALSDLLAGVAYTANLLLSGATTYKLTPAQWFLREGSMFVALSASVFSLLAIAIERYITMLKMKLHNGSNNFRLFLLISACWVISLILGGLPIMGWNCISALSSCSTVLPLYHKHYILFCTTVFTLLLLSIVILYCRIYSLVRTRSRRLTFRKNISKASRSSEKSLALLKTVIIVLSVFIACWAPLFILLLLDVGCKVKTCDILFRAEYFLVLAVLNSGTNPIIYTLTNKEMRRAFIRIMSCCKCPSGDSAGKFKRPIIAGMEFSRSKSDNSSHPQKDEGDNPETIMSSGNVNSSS

EC50: 16.3 nM
SMILES: CCCCCCCCCCCCC/C=C/[C@@H](O)[C@@H](N)COP(=O)(O)O [Compound S1P, sphingosine-1-phosphate]
